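Interpolation was linear, between the two tested concentrations surrounding the appropriate level; five concentrations were tested over 48 hours in 96-well plates. The concentration for 50% growth inhibition is given as GI50. At the TGI there is no net growth.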
Experiments:
Test in all cases: inhibition of tumour cell growth, NCI panel, 48 h
[1] = system: 786-0 renal
[2] = system: A498 renal
[3] = system: A549 NSCLC
[4] = system: ACHN renal
[5] = system: BT-549 breast
[6] = system: CAKI-1 renal
[7] = system: CCRF-CEM leukemia
[8] = system: COLO 205 colon
[9] = system: DU-145 prostate
[10] = system: EKVX NSCLC
[11] = system: HCC-2998 colon
[12] = system: HCT-116 colon
[13] = system: HCT-15 colon
[14] = system: HL-60(TB) leukemia
[15] = system: HOP-62 NSCLC
[16] = system: HOP-92 NSCLC
[17] = system: HS 578T breast
[18] = system: HT29 colon
[19] = system: IGROV1 ovarian
[20] = system: K-562 leukemia
[21] = system: KM12 colon
[22] = system: LOX IMVI melanoma
[23] = system: M14 melanoma
[24] = system: MALME-3M melanoma
[25] = system: MCF7 breast
[26] = system: MDA-MB-231 breast
[27] = system: MDA-MB-435
[28] = system: MOLT-4 leukemia
[29] = system: NCI-H226 lung
[30] = system: NCI-H23 lung
[31] = system: NCI-H460 lung
[32] = system: NCI-H522 lung
[33] = system: NCI/ADR-RES ovarian
[34] = system: OVCAR-3 ovarian
[35] = system: OVCAR-4 ovarian
[36] = system: OVCAR-5 ovarian
[37] = system: OVCAR-8 ovarian
[38] = system: PC-3 prostate
[39] = system: RPMI-8226 leukemia
[40] = system: RXF 393 renal
[41] = system: SF-268 CNS
[42] = system: SF-295 CNS
[43] = system: SF-539 CNS
[44] = system: SK-MEL-2 melanoma
[45] = system: SK-MEL-28 melanoma
[46] = system: SK-MEL-5 melanoma
[47] = system: SK-OV-3 ovarian
[48] = system: SN12C renal
[49] = system: SNB-19 CNS
[50] = system: SNB-75 CNS
[51] = system: SR leukemia
[52] = system: SW-620 colon
[53] = system: T-47D breast
[54] = system: TK-10 renal
[55] = system: U251 CNS
[56] = system: UACC-257 melanoma
[57] = system: UACC-62 melanoma
[58] = system: UO-31 renal

Molecule `Nc1nc(-c2ccc(Cl)cc2)cc(-c2ccccc2)c1-c1nc2ccccc2o1` has a GI50 [1] of 4.52 µM, a TGI [1] of 19.8 µM and a GI50 [2] of 15.8 µM. For the same molecule, the TGI [2] was 30.5 µM, the GI50 [3] was 5.9 µM and the TGI [3] was over 100 µM. For the same molecule, the GI50 [4] was 8.8 µM, the TGI [4] was 23.3 µM and the GI50 [5] was 13.5 µM. It also gave a TGI [5] of 28.3 µM, a GI50 [6] of 12.2 µM and a TGI [6] of 28.6 µM. The GI50 [7] was 4.2 µM, the TGI [7] was 33.6 µM and the GI50 [8] was 19.1 µM. For the same molecule, the TGI [8] was 35.9 µM, the GI50 [9] was 7.68 µM and the TGI [9] was 30.4 µM. For the same molecule, the GI50 [10] was 12.4 µM, the TGI [10] was 28 µM and the GI50 [11] was 8.39 µM. The TGI [11] was 34 µM, the GI50 [12] was 3.21 µM and the TGI [12] was 9.17 µM. The GI50 [13] was 6.15 µM, the TGI [13] was 28.3 µM and the GI50 [14] was 3.47 µM. The TGI [14] was 9.23 µM, the GI50 [15] was 2.92 µM and the TGI [15] was 7.47 µM. For the same molecule, the GI50 [16] was 2.19 µM, the TGI [16] was 6.18 µM and the GI50 [17] was 12.7 µM. For the same molecule, the TGI [17] was 40.9 µM, the GI50 [18] was 5.99 µM and the TGI [18] was 39.1 µM. For the same molecule, the GI50 [19] was 12.5 µM, the TGI [19] was 49 µM and the GI50 [20] was 3.69 µM. The TGI [20] was over 100 µM, the GI50 [21] was 2.65 µM and the TGI [21] was 8.17 µM. For the same molecule, the GI50 [22] was 2.42 µM, the TGI [22] was 5.77 µM and the GI50 [23] was 10.4 µM. The TGI [23] was 26.2 µM, the GI50 [24] was 10.3 µM and the TGI [24] was 33.4 µM. The GI50 [25] was 3.1 µM, the TGI [25] was over 100 µM and the GI50 [26] was 5.02 µM. It also gave a TGI [26] of 17.8 µM, a GI50 [27] of 9.45 µM and a TGI [27] of 26.9 µM. It also gave a GI50 [28] of 3.3 µM, a TGI [28] of 11.4 µM and a GI50 [29] of 15.1 µM. For the same molecule, the TGI [29] was 31.3 µM, the GI50 [30] was 6.24 µM and the TGI [30] was 34.6 µM. The GI50 [31] was 3.98 µM, the TGI [31] was over 100 µM and the GI50 [32] was 9.5 µM. The TGI [32] was 33.9 µM, the GI50 [33] was 5.46 µM and the TGI [33] was over 100 µM. The GI50 [34] was 7.29 µM, the TGI [34] was 27.3 µM and the GI50 [35] was 11.5 µM. The TGI [35] was 28 µM, the GI50 [36] was 19.8 µM and the TGI [36] was 54.7 µM. It also gave a GI50 [37] of 14.1 µM, a TGI [37] of 54.1 µM and a GI50 [38] of 4.62 µM. The TGI [38] was 16.8 µM, the GI50 [39] was 6.9 µM and the TGI [39] was 23 µM. The GI50 [40] was 3.69 µM, the TGI [40] was 16.9 µM and the GI50 [41] was 6.38 µM. For the same molecule, the TGI [41] was 67.2 µM, the GI50 [42] was 15 µM and the TGI [42] was 35.6 µM. For the same molecule, the GI50 [43] was 16.1 µM, the TGI [43] was 32.2 µM and the GI50 [44] was 15.5 µM. The TGI [44] was 39.2 µM, the GI50 [45] was 15.2 µM and the TGI [45] was 34 µM. It also gave a GI50 [46] of 14.6 µM, a TGI [46] of 29.4 µM and a GI50 [47] of 15.4 µM. It also gave a TGI [47] of 32.4 µM, a GI50 [48] of 3.05 µM and a TGI [48] of 9.29 µM. It also gave a GI50 [49] of 18.6 µM, a TGI [49] of 44.6 µM and a GI50 [50] of 10.5 µM. It also gave a TGI [50] of 24.5 µM, a GI50 [51] of 3.37 µM and a TGI [51] of 8.97 µM. For the same molecule, the GI50 [52] was 13.4 µM, the TGI [52] was 31.1 µM and the GI50 [53] was 10.2 µM. The TGI [53] was 27.2 µM, the GI50 [54] was 3.02 µM and the TGI [54] was 8.95 µM. For the same molecule, the GI50 [55] was 4.49 µM, the TGI [55] was 18.7 µM and the GI50 [56] was 15.3 µM. It also gave a TGI [56] of 35.3 µM, a GI50 [57] of 15.8 µM and a TGI [57] of 30.7 µM. For the same molecule, the GI50 [58] was 10.3 µM and the TGI [58] was 26.4 µM.
